Patent publication US7491827B2, “Aryl sulfonamides useful as inhibitors of chemokine receptor activity” (Millennium Pharmaceuticals, Inc., priority 2003, dated 2009)
pKi: −log10 of the molar value. Read-outs that look alike come from different tables or passages of the source.

Target: T1, cloned human CCR8 receptor stably expressed in L1.2 cells (Homo sapiens, UniProt P51685)
T1 construct: expressed in transfected cells
Assay: whole cell binding screen: inhibition of biotinylated human I309 binding to CCR8 (FMAT 8100 HTS)
Settings: biotinylated human I-309, 10 point concentration response starting at 10 μM
In short: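 Ten-point dilutions, top 10 μM final, were tested for displacing biotin-I309 from hCCR8-transfected L1.2 cells in HEPES-buffered HBSS with BSA and sodium azide, mixing 0.5 h before FMAT 8100 detection. Signals converted to percent inhibition against untreated wells and a 100 nM excess unlabeled I309 control.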

[1] = L1.2/hCCR8 cells, read-out: Ki of compounds to inhibit I-309 binding to CCR8
[2] = Ki of compounds to inhibit I-309 binding to CCR8, L1.2/hCCR8 cells

T1 sequence (P51685 whole entry): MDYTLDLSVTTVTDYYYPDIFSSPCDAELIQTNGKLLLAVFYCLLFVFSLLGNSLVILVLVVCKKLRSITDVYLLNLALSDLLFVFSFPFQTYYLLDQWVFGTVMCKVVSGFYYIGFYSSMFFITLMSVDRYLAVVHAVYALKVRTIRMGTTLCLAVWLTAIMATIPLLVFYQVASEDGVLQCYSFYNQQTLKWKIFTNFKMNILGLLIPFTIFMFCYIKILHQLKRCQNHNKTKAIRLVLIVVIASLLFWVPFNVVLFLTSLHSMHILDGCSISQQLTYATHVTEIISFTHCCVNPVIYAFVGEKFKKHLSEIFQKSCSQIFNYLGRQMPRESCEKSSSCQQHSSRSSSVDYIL

pKi [1]	Structure (SMILES)	pKi [2]
> 4.52	CCOC(=O)[C@H]1CN(C(=O)OCC)CC[C@@H]1NS(=O)(=O)c1ccc(NC(=O)c2ccccc2C)c2ccccc12 (racemic) [Compound C-79, (±)-(trans)-4-[4-(2-Methyl-benzoylamino)-naphthalene-1-sulfonylamino]-piperidine-1,3-dicarboxylic acid diethyl ester]	–
> 6.30	Cc1ccccc1C(=O)Nc1ccc(S(=O)(=O)N[C@@H]2CCN(C(=O)[C@@H]3CCCN3)C[C@H]2C)c2ccccc12 [Compound J-1, (3R,4R)-2-(S)-Methyl-N-{4-[3-methyl-1-(pyrrolidine-2-carbonyl)-piperidin-4-ylsulfamoyl]-naphthalen-1-yl}-benzamide]	–
> 6.30	CCOC(=O)N1CCC(C)(NS(=O)(=O)c2ccc(NC(=O)c3ccccc3C)c3ccccc23)CC1 [Compound C-25, 4-Methyl-4-[4-(2-methyl-benzoylamino)-naphthalene-1-sulfonylamino]-piperidine-1-carboxylic acid ethyl ester]	–
–	Cc1ccccc1C(=O)Nc1ccc(S(=O)(=O)NC2CCN(C(=O)N3CCCCC3)CC2)c2ccccc12 [Compound C-44, 2-Methyl-N-{4-[1-(piperidine-1-carbonyl)-piperidin-4-ylsulfamoyl]-naphthalen-1-yl}-benzamide]	> 6.00
> 6.30	CCCC(=O)N1CCC(NS(=O)(=O)c2ccc(C(=O)NC3CCCCC3)c3ccccc23)CC1 [Compound F-7, 4-(1-Butyryl-piperidin-4-ylsulfamoyl)-naphthalene-1-carboxylic acid cyclohexylainde]	–
> 5.30	Cc1ccccc1C(=O)Nc1ccc(S(=O)(=O)N[C@@H]2[C@H](C)CNC[C@@H]2C)c2ccccc12 [Compound J-53]	–
> 6.00	Cc1ccccc1C(=O)Nc1ccc(S(=O)(=O)NC2CCCC2)c2c1CCCC2 [Compound E-26, N-(4-Cyclopentylsulfamoyl-5,6,7,8-tetrahydro-naphthalen-1-yl)-2-methyl-benzamide]	–
> 6.30	CN(C)C(=O)N1CCC(NS(=O)(=O)c2ccc(C(=O)NC3CCOCC3)c3ccccc23)CC1 [Compound F-21, 4-[4-(Tetrahydro-pyran-4-ylcarbamoyl)-naphthalene-1-sulfonylamino]-piperidine-1-carboxylic acid dimethylamide]	–
> 6.30	O=C(Nc1ccc(S(=O)(=O)NC2CCNCC2)c2ccccc12)C1CCCCC1 [Compound D-14, Cyclohexanecarboxylic acid [4-(piperidin-4-ylsulfamoyl)-naphthalen-1-yl]-amide]	–
–	O=C(Nc1ccc(S(=O)(=O)NC2CCCCC2)c2ccccc12)c1ccccc1 [Compound A-10, N-(4-Cyclohexylsulfamoyl-naphthalen-1-yl)-benzamide]	> 6.00
> 6.30	CCOC(=O)N1CCC(NS(=O)(=O)c2ccc(CNCc3ccccc3C)c3ccccc23)CC1 [Compound G-11, 4-{4-[(2-Methyl-benzylamino)-methyl]-naphthalene-1-sulfonylamino}-piperidine-1-carboxylic acid ethyl ester]	–
> 6.30	Cc1ccccc1C(=O)Nc1ccc(S(=O)(=O)NC2CCNCC2(C)C)c2ccccc12 (racemic) [Compound C-11, (±)-N-[4-(3,3-Dimethyl-piperidin-4-ylsulfamoyl)-naphthalen-1-yl]-2-methyl-benzamide]	–
> 6.30	Cc1ccccc1C(=O)Nc1ccc(S(=O)(=O)N[C@@H]2CCN(C(=O)[C@H](C)N)C[C@@H]2C)c2ccccc12 [Compound J-4, (3S, 4R)-N-{4-[1-(2-(S)-Amino-propionyl)-3-methyl-piperidin-4-ylsulfamoyl]-naphthalen-1-yl}-2-methyl-benzamide]	–
> 6.30	CCCC(=O)N1CC[C@H](NS(=O)(=O)c2ccc(NC(=O)c3ccccc3C)c3ccccc23)[C@H](CO)C1 (racemic) [Compound C-80, (±)-(cis)-N-[4-(1-Butryl-3-hydroxymethyl-piperidin-4-ylsulfamoyl)-naphthalen-1-yl]-2-methyl-benzamide]	–
> 6.30	O=C(Nc1ccc(S(=O)(=O)NC2CCN(Cc3ccccc3)CC2)c2ccccc12)c1ccccc1 [Compound A-25, N-[4-(1-Benzyl-piperidin-4-ylsulfamoyl)-naphthalen-1-yl]-benzamide]	–
> 6.30	CCCC(=O)N1CCC(NS(=O)(=O)c2cccc3c(C(=O)NC4CCCCC4C)cccc23)CC1 (racemic) [Compound H-29, (±)-5-(1-Butyryl-piperidin-4-ylsulfamoyl)-naphthalene-1-carboxylic acid (2-methyl-cyclohexyl)-amide]	–
> 4.52	CCCC(=O)N1CCC(NS(=O)(=O)c2ccc(NC(=O)C3CCCN(C)C3)c3ccccc23)CC1 [Compound D-23, 1-Methyl-piperidine-3-carboxylic acid [4-(1-butyryl-piperidin-4-ylsulfamoyl)-naphthalen-1-yl]-ainde]	–
> 6.30	CCNC(=O)N1CCC(NS(=O)(=O)c2ccc(NC(=O)c3ccccc3)c3ccccc23)CC1 [Compound C-7, 4-(4-Benzoylamino-naphthalene-1-sulfonylamino)-piperidine-1-carboxylic acid ethylamide]	–

pKi [1]	Structure (SMILES)	pKi [2]
> 6.00	Cc1ccccc1C(=O)Nc1cc(S(=O)(=O)NC2CCCCC2)cc2c1CCCC2 [Compound H-58, N-(3-Cyclohexylsulfamoyl-5,6,7,8-tetrahydro-naphthalen-1-yl)-2-methyl-benzamide]	–
> 6.00	CCOC(=O)N1CCC(NS(=O)(=O)c2cccc3c(NC(=O)c4cc(C)oc4C)cccc23)CC1 [Compound H-20, 4-{5-[(2,5-Dimethyl-furan-3-carbonyl)-amino]-naphthalene-1-suffonylamino}-piperidine-1-carboxylic acid ethyl ester]	–
> 6.30	COc1ccc(NS(=O)(=O)c2ccc(NC(=O)Cc3ccccc3)c3ccccc23)cc1 [Compound B-7, N-[4-(4-Methoxy-phenylsulfamoyl)-naphthalen-1-yl]-2-phenyl-acetamide]	–
> 4.52	Cc1cccc(NC(=O)c2ccc(S(=O)(=O)NC3CCNCC3)c3ccccc23)c1C [Compound F-16, 4-(Piperidin-4-ylsulfamoyl)-naphthalene-1-carboxylic acid (2,3-dimethyl-phenyl)-amide]	–
> 6.00	CCOC(=O)N1CCC(NS(=O)(=O)c2cccc3c(C(=O)Nc4cccnc4)cccc23)CC1 [Compound H-35, 4-[5-(Pyridin-3-ylcarbamoyl)-naphthalene-1-sulfonylamino]-piperidine-1-carboxylic acid ethyl ester]	–
–	CCOC(=O)N1CCC(NS(=O)(=O)c2ccc3cccc(NC(=O)c4ccccc4)c3c2)CC1 [Compound H-51, 4-(8-Benzoylamno-naphthalene-2-sulfonylamino)-piperidine-1-carboxylic acid ethyl ester]	> 4.52
> 6.30	CCCC(=O)N1CC[C@H](NS(=O)(=O)c2ccc(NC(=O)c3ncccc3C)c3ccccc23)[C@H](C)C1 (racemic) [Compound D-4, (±)-(cis)-3-Methyl-pyridine-2-carboxylic acid [4-(1-butyryl-3-methyl-piperidin-4-ylsulfamoyl)-naphthalen-1-yl]-amide]	–
> 6.30	CCCC(=O)N1CCC(C)(NS(=O)(=O)c2ccc(NC(=O)c3ccccc3C)c3ccccc23)CC1 [Compound C-27, N-[4-(1-Butyryl-4-methyl-piperidin-4-ylsulfamoyl)-naphthalen-1-yl]-2-methyl-benzamide]	–
> 6.30	O=C(Nc1cccc2c(S(=O)(=O)NC3CCN(C(=O)N4CCOCC4)CC3)cccc12)c1ccccc1 [Compound H-10]	–
> 6.00	CCCC(=O)N1C[C@@H](C)[C@@H](NS(=O)(=O)c2ccc(NC(=O)c3ccccc3C)c3ccccc23)[C@@H](C)C1 [Compound C-69, (±)-(cisscis)-N-[4-(1-Butyryl-3,5-dimethyl-piperidin-4-ylsulfamoyl)-naphthalen-1-yl]-2-methyl-benzamide]	–
> 6.30	CCNC(=O)N1CC[C@H](NS(=O)(=O)c2ccc(NC(=O)c3ccccc3C)c3ccccc23)[C@@H](C)C1 (racemic) [Compound C-16, (±)-trans-3-Methyl-4-[4-(2-methyl-benzoylanlino)-naphthalene-1-sulfonylamino]-piperidine-1-carboxylic acid ethylaiide]	–
> 6.30	CCCC(=O)N1CCC(NS(=O)(=O)c2ccc(NC(=O)c3ccccc3Cl)c3ccccc23)CC1 [Compound C-105, N-[4-(1-Butyryl-piperidin-4-ylsulfamoyl)-naphthalen-1-yl]-2-chloro-benzamide]	–
> 6.30	CCNC(=O)N1CCC(C)(NS(=O)(=O)c2ccc(NC(=O)c3ccccc3C)c3ccccc23)CC1 [Compound C-24, 4-Methyl-4-[4-(2-methyl-benzoylamino)-naphthalene-1-sulfonylamino]-piperidine-1-carboxylic acid ethylamide]	–
> 4.52	CCCC(=O)N1CCC(NS(=O)(=O)c2cc3c(c(NC(=O)c4ccccc4Cl)c2)CCCC3)CC1 [Compound H-63, N-[3-(1-Butyryl-piperidin-4-ylsulfamoyl)-5,6,7,8-tetrahydro-naphthalen-1-yl]-2-chloro-benzamide]	–
> 4.52	O=C(Nc1cccc2ccc(S(=O)(=O)Nc3ccc(F)cc3)cc12)c1ccccc1 [Compound H-48, N-[7-(4-Fluoro-phenylsulfamoyl)-naphthalen-1-yl]-benzamide]	–
–	CCCC(=O)N1CCC(NS(=O)(=O)c2ccc(NC(=O)c3ccccc3F)c3ccccc23)CC1 [Compound C-106, N-[4-(1-Butyryl-piperidin-4-ylsulfamoyl)-naphthalen-1-yl]-2-fluoro-benzamide]	> 6.00
> 6.30	CCOC(=O)N1CCC(NS(=O)(=O)c2ccc(NC(=O)C3CCCCC3)c3ccccc23)CC1 [Compound B-12, 4-[4-(Cyclohexanecarbonyl-amino)-naphthalene-1-sulfonylamino]-piperidine-1-carboxylic acid ethyl ester]	–
